Measurements taken from publication PMC11831560, “Development of the Pyrido[2,3-d]pyrimidin-7(8H)-one Scaffold toward Potent and Selective NUAK1 Inhibitors” (ACS Medicinal Chemistry Letters, 2025).
Several values for one entry are separate records, joined by “and”; a condition that tells them apart may be missing. Equal values may be shown once.

Legend:
Test in all cases: Kinase panel radiometric filter binding (33P-ATP)
Format in all cases: biochemical
Parameters in all cases: % activity remaining: dose or concentration left out as unconfirmed
VEG-FR = biological target: T1, VEG-FR (Homo sapiens, UniProt P17948); conditions: for % activity remaining: VEG-FR
T1 sequence (P17948 784-1338 limits assumed): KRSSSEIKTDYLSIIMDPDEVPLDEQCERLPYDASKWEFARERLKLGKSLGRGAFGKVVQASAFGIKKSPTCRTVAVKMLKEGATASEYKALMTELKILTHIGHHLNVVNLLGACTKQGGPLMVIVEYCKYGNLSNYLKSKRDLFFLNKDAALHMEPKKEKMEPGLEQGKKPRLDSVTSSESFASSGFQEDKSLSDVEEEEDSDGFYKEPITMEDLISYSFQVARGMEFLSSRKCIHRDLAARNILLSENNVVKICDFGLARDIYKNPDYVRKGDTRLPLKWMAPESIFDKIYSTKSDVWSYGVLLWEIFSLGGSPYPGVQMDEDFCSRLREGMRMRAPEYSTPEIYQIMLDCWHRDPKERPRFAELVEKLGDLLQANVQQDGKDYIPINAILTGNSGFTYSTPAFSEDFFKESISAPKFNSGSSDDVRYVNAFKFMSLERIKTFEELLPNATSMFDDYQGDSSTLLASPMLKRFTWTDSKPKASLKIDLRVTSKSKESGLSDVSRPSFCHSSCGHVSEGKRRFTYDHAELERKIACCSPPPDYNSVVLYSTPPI
Procedure: (§1) Table S4: AMPKA kinase activity data (ADP-Glo assay)
(§2) Compound pIC50 (Fold selectivity
(§3) Table S5. Kinase selectivity screening for 9 and 24 at 1 µM against a general kinase panel of 140 targets
(§4) in radiometric filter binding assay using 33P-γ−ATP at the MRC PPU International Centre for Kinase
(§5) Profiling, University of Dundee. pIC50 values were determined for compounds with <20% activity
(§6) Kinase activity s.d. pIC50 activity s.d. pIC50

MST3 = MST3 (Homo sapiens, UniProt Q9Y6E0); conditions: for % activity remaining: MST3
Procedure: as §1, §2, §3, §4, §5, §6

MELK = MELK (Homo sapiens, UniProt Q14680); conditions: for % activity remaining: MELK
Procedure: as §1, §2, §3, §4, §5, §6

ULK2 = biological target: T2, ULK2 (Homo sapiens, UniProt Q8IYT8); conditions: for % activity remaining: ULK2
T2 sequence (Q8IYT8 1-1036): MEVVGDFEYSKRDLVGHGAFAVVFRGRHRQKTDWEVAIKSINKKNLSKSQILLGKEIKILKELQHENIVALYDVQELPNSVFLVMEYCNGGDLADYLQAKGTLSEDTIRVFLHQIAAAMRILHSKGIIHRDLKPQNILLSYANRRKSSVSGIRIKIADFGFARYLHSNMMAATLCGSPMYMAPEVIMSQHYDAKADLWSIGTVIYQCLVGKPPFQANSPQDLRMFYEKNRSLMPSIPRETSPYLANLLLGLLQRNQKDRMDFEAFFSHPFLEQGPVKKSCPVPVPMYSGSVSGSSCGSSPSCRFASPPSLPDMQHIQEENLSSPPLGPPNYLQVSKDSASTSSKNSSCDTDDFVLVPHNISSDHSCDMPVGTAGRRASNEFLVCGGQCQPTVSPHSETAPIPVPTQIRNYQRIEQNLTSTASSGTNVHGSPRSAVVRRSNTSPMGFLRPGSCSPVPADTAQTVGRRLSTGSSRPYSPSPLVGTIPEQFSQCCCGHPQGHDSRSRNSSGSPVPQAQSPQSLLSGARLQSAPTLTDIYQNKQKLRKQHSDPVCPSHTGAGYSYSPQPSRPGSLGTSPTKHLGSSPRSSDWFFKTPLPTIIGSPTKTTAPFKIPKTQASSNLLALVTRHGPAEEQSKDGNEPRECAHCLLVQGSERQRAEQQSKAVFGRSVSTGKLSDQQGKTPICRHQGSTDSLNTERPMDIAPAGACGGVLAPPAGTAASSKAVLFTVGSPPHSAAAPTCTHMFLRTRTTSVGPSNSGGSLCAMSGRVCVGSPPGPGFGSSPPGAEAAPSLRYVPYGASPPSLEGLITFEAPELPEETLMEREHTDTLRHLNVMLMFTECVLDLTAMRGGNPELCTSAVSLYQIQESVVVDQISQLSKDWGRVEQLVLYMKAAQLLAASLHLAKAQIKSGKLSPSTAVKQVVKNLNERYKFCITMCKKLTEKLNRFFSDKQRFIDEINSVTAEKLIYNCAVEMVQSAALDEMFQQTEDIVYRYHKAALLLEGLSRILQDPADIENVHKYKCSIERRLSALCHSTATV
Procedure: as §1, §2, §3, §4, §5, §6

TAK1 = biological target: T3, TAK1 (Homo sapiens, UniProt O43318); conditions: for % activity remaining: TAK1
T3 sequence (O43318 1-303 limits assumed): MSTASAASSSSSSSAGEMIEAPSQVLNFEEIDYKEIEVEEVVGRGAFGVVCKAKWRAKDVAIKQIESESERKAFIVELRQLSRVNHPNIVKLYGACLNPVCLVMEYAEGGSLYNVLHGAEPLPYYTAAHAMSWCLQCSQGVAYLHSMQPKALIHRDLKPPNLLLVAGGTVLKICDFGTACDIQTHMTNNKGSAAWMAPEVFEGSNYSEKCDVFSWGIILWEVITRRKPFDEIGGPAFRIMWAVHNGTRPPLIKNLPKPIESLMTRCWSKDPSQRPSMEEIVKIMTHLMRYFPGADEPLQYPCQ
Procedure: as §1, §2, §3, §4, §5, §6

SIK2 = SIK2 (Homo sapiens, UniProt Q9H0K1); conditions: for % activity remaining: SIK2
Procedure: as §1, §2, §3, §4, §5, §6

[1] = radiometric filter binding panel

Chain of SIK2 (Q9H0K1 whole entry, species assumed): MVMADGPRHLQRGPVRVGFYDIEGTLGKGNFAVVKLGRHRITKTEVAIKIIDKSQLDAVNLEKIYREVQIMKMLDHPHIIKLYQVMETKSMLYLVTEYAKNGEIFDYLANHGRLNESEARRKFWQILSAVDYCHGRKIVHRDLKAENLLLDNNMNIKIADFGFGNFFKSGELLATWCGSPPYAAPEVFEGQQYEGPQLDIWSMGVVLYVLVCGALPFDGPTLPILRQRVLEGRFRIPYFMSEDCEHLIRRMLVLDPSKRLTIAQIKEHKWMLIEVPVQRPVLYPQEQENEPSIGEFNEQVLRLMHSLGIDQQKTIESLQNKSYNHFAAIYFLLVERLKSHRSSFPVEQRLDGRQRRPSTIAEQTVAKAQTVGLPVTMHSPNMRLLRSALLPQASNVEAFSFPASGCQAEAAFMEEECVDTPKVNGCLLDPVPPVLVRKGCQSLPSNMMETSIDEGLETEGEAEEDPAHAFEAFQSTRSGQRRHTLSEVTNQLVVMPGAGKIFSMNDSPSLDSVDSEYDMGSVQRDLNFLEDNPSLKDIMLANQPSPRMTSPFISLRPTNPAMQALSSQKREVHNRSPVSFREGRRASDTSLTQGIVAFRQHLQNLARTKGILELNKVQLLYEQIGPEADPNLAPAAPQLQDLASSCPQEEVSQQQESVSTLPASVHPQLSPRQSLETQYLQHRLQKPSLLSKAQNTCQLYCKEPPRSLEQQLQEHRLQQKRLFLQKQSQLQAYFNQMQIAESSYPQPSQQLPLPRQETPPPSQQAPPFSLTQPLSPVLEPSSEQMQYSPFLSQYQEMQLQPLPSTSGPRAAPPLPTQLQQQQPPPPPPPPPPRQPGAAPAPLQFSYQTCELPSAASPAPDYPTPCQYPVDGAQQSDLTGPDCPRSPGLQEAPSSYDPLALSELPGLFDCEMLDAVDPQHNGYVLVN
Chain of MELK (Q14680 whole entry, species assumed): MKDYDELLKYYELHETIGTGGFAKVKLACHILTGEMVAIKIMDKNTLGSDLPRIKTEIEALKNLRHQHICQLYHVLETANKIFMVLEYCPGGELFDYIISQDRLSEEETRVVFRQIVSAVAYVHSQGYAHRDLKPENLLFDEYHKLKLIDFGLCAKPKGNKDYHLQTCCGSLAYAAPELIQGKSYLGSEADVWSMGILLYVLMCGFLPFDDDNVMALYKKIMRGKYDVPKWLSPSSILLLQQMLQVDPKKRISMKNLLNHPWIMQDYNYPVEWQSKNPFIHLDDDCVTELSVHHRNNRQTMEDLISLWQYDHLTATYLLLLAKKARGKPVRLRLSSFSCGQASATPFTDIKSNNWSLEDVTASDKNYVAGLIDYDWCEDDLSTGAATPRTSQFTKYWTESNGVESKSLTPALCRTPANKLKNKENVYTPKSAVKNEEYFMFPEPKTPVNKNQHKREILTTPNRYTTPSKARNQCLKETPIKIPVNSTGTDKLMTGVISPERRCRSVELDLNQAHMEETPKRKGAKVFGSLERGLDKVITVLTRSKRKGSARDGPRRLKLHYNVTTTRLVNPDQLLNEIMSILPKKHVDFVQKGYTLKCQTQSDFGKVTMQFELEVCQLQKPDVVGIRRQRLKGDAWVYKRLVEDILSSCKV
Chain of MST3 (Q9Y6E0 whole entry, species assumed): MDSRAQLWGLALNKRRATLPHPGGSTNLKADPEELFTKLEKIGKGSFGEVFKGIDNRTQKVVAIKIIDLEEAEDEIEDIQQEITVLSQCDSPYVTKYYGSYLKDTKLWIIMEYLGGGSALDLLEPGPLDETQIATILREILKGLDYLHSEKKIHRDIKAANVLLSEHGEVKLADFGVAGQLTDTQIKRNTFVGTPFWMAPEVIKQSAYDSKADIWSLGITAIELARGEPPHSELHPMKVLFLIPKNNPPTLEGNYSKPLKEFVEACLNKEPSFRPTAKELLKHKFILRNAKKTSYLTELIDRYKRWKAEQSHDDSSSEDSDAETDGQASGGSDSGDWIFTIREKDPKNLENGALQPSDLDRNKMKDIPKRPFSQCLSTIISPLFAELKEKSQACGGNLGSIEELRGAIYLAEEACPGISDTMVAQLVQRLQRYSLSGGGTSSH

Compound	% activity remaining (VEG-FR)	IC50 (VEG-FR; radiometric filter binding panel, read-out: VEG-FR pIC50 (converted))	% activity remaining (MST3)	% activity remaining (MELK)	% activity remaining (ULK2)	% activity remaining (TAK1)	% activity remaining (SIK2)	SIK2 pIC50 (SIK2; [1])	MST3 pIC50 (MST3; [1])	IC50 (MST3; radiometric filter binding panel, read-out: MST3 pIC50 (converted))	MELK pIC50 (MELK; [1])	IC50 (MELK; radiometric filter binding panel, read-out: MELK pIC50 (converted))	ULK2 pIC50 (ULK2; [1])	IC50 (TAK1; radiometric filter binding panel, read-out: TAK1 pIC50 (converted))
CN1C2CC1CN(c1ccc(Nc3ncc4ccn(CC5CCOCC5)c4n3)cc1)C2 [Compound 24]	17%	295 nM	84%	95%	75%	110%	13%	7.1 and 7.09						
Cc1cc(=O)n(C2CCCC2)c2nc(Nc3ccc(N4CC5CC(C4)N5C)cc3)ncc12 [Compound 9]	71%		17%	6%	17%	6%	44%		> 7	112 nM	> 7	53.7 nM	7.4 and 7.39	209 nM
